Common to all, as to assay type: physicochemical
The nature of series [1]: Thermal behaviour during heating (DSC). How it is done: Differential Scanning calorimetry (DSC) data were acquired on a TA Instruments Q20 DSC. The method parameters were: Heat Program: 30° C. to 300° C. using a 10° C. per minute heating rate, under a nitrogen gas flow.
A short description of series [2]: Water vapor sorption (DVS) at 25° C. How it is done:
Water vapor sorption experiments were performed using a Surface Measurement System DVS Advantage at 25° C. The Bis-HCl salt of Compound A reversibly absorbed approximately 7% weight per weight of water between 0% and 90% relative humidity at 25° C. […] Upon desorption the conversions were reversible. The Form 1 crystalline mesylate salt of Compound A reversibly absorbed approximately 1.6% weight per weight of water between 0% and 90% relative humidity at 25° C.

The nature of series [3]: Solubility in simulated intestinal fluids at controlled ambient room temperature. Conditions: for Solubility in FaSSIF and FeSSIF (in words): mesylate compared to the bis-HCl salt.
Setting [4] is: Fasted State Simulated Intestinal Fluid (FaSSif) pH 6.5, controlled ambient room temperature.
The mark [5] stands for this setting: Fed State Simulated Intestinal Fluid (FeSSif) pH 6.5, controlled ambient room temperature.

We go through two molecules from patent US20220024970A1, “COMPOUNDS WITH HIV MATURATION INHIBITORY ACTIVITY” (VIIV HEALTHCARE UK (NO. 4) LIMITED, priority 2018, published 2022).

Counter-ions that a name gives are not always drawn.

Regarding `C=C(C)[C@@H]1CC[C@]2(NCCN3CCS(=O)(=O)CC3)CC[C@]3(C)[C@H](CC[C@@H]4[C@@]5(C)CC=C(C6=CC[C@@](CF)(C(=O)O)CC6)C(C)(C)[C@@H]5CC[C@]43C)[C@@H]12` [Form 1 of Mesylate salt of Compound A], in series [1], the “Thermal loss of counter-ion during heating” value is recorded as “does not show this behavior”. For the same molecule, the “Solid form change upon moisture sorption” value in series [2] (ambient humidity conditions) is “no significant form change”. Further, the Water reversibly absorbed result in series [2] (between 0% and 90% relative humidity at 25° C.) is reported as “approximately 1.6 % weight per weight”. Moreover, the “Hygroscopicity (in words)” value in series [2] (compared to the bis-HCl salt, ambient humidity conditions) was “lower hygroscopicity”. Also, the “Solubility in FaSSIF and FeSSIF (in words)” value in series [3] (listed as Form 1 of the mesylate salt of Compound A) was “greater solubility”. The “Solubility of Specified Version” value in series [3] (setting [4]) was 100 µg/mL; in series [3] (setting [5]) it was 600 µg/mL.

In the case of `C=C(C)[C@@H]1CC[C@]2(NCCN3CCS(=O)(=O)CC3)CC[C@]3(C)[C@H](CC[C@@H]4[C@@]5(C)CC=C(C6=CC[C@@](CF)(C(=O)O)CC6)C(C)(C)[C@@H]5CC[C@]43C)[C@@H]12` [Parent Compound A, (1R)-4-[(1R,3aS,5aR,5bR,7aR,11aS,11bR,13aR,13bR)-3a-{[2-(1,1-dioxido-4-thiomorpholinyl)ethyl]amino}-5a,5b,8,8,11a-pentamethyl-1-(1-propen-2-yl)-2,3,3a,4,5,5a,5b,6,7,7a,8,11,11a,11b,12,13,13a,13b-octadecahydro-1H-cyclopenta[a]chrysen-9-yl]-1-(fluoromethyl)-3-cyclohexene-1-carboxylic acid], the “Solubility in FaSSIF and FeSSIF (in words)” value in series [3] (listed as parent free base of Compound A) is reported as “poor solubility”. Moreover, the “Solubility of Specified Version” value in series [3] (setting [4]) and in series [3] (setting [5]) was “Less than 0.001 mg/mL” in each case.
